Data: patent US11028095B2, “Spiro-lactam and bis-spiro-lactam NMDA receptor modulators and uses thereof” (Aptinyx Inc., priority 2016, dated 2021)

Tests used:
[1] = system: positive (hedonic) 50-kHz ultrasonic vocalizations (USVs); assay: Positive Emotional Learning (PEL) test; assay type: in vivo; conditions: rat, PO, dose 0.001-1 mg/kg, one hour after administration
How it was run: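 Rats received test compound or vehicle (0.5% carboxymethyl cellulose in saline) 1 h before 3 min of experimenter-delivered rough-and-tumble play in alternating 15 s play and no-stimulation blocks. Frequency-modulated 50-kHz USVs during no-stimulation (CS) periods were counted; animals not habituated beforehand.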

[2] = Microsomal stability (Rat); assay type: in vitro ADME; conditions: rat microsomes
Experimental: Microsomal stability of disclosed compounds was investigated. The following table indicates the percent of compound remaining after 60 minutes.

CC(C)CN1[C@@]2(CC[C@@]13CNC3=O)CNC2=O [Compound AD, 5-isobutyl-2,5,8-triazadispiro[3.1.36.24]undecane-1,7-dione]
Max Effect (mean number of 50 kHz USVs per 15 seconds) [1]: ** (**: 11-16.9) | Microsomal (Rat): percent of compound remaining after 60 minutes [2]: 100%
